Data reported in patent US9938222B2 (BRISTOL-MYERS SQUIBB COMPANY, priority 2014, dated 2018).

Biological target: human GPR120 (Homo sapiens (Human), UniProt Q5NUL3)
Experiment: GPR120 pERK AlphaScreen SureFire Assay (human GPR120 pERK assay)
Assay type: cell-based
Conditions: CHO cells stably transfected with short form of human GPR120
Source text: GPR120 activity was monitored by measuring phosphorylation of ERK (pERK), since G protein receptors are known to activate the ERK signaling cascade either directly and/or through recruitment of arrestin that serves as a scaffold for downstream signaling events.
GPR120 pERK AlphaScreen SureFire Assay
The human and mouse GPR120-mediated intracellular phosphorylated ERK assays were established using CHOA12 cells stably transfected with the short form of human or mouse GPR120 receptor. Cells were cultured in growth medium consisting of F-12 media (Invitrogen Cat. #11765) with 5% Charcoal/Dextran FBS (Invitrogen Cat. #12676-029), 500 μg/mL GENETICIN® (Life Technologies Cat. #10131-027) and 250 μg/mL Zeocin (Invitrogen Cat. #R250-01). Cells were cryo-preserved at a concentration of 2×10^7 cells/mL, in 90% Charcoal/Dextran FBS and 10% DMSO, and frozen in liquid nitrogen at a low passage number.
For the pERK assay, 2×10^7 cells/mL cryopreserved human and mouse cells were thawed rapidly in a 37° C. water bath and added to a T-225 flask containing 50 mL growth medium. The flasks were placed in a tissue culture incubator overnight (37° C., 5% CO2). The next day, cells were harvested with trypsin (Gibco Cat. #25300-054), resuspended in serum-containing growth medium and counted using a Cellometer and volume adjusted to a concentration of 0.6×10^6 cells/mL. Cells were plated into 384-well clear bottom tissue culture plates (BD Cat. #353962) at 50 μL/well, for a density of 30,000 cells/well using a MULTIDROP® and incubated for 16-18 hours (overnight) at 37° C. with 5% CO2. The next day, cells were serum starved in 30 μL of F-12 media without any serum or antibiotics for 2 hours at 37° C.
Test compounds were 3-fold, 11-point serially diluted in DMSO in a REMP assay plate (Matrix Cat. #4307) by Tecan and 5 μL was transferred into an ECHO source plate (Labcyte Cat. #LC-0200). Cells were then stimulated with 50 nL of compound dilutions using ECHO liquid handler for 7 min at 37° C. Compounds ranged from final assay concentrations of 33.33 μM to 0.56 nM.
The media was then dumped and cells lysed with 20 μL of 1× Lysis buffer from the AlphaScreen SureFire Phospho-ERK 1/2 Kit (Perkin Elmer Cat. #6760617M). The lysis buffer was diluted 5-fold with water before use. The plate was agitated on a shaker for 10 min after which 2 μL was transferred into a 384-well white proxiplate (Perkin Elmer Cat. #6008289). The SureFire assay reagent mix was prepared by mixing 60 parts Reaction Buffer, 10 parts Activation Buffer, 1 part Donor Beads, 1 part Acceptor Beads (Perkin Elmer Cat. #TGRES10K). 3.5 μL/well of this reagent mix was manually added to the proxiplate with a multichannel pipettor. Plates were spun down at 1000 rpm for 2 min, followed by light-protected incubation at room temperature for 2 hours. The plates were read on the Alpha-technology compatible Envision multilabel plate reader using AlphaScreen protocol according to manufacturer's specifications. The agonist effect of compounds was expressed as 100×(average sample-average blank)/(average total-average blank) where sample is the luminescence activity in the presence of test compound, blank is equal to the luminescence activity in the presence of DMSO control and the total is signal induced by 50 μM linolenic acid as reference compound. Activation data for the test compound over a range of concentrations was plotted as percentage activation of the test compound (100%=maximum response). After correcting for background, EC50 values were determined. The EC50 is defined as the concentration of test compound which produces 50% of the maximal response and was quantified using the 4 parameter logistic equation to fit the data.
The human and mouse GPR120-mediated intracellular phosphorylated ERK assays were also established using CHO-K1 cells stably transfected with the short form of human or mouse GPR120 receptor. […]

human GPR120, sequence (Q5NUL3 whole entry): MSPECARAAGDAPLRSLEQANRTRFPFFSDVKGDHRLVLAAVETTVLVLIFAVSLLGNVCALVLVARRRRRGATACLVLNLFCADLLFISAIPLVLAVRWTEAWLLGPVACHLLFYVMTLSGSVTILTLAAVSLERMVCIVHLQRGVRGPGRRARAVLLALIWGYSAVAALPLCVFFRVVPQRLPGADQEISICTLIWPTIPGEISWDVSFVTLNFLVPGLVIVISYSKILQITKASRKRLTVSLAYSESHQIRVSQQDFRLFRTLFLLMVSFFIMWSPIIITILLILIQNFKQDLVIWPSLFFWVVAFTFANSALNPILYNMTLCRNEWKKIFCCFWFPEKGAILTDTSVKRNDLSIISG

First: O=C(O)[C@@H]1C[C@H]1CCc1ccc(-c2cc(Oc3ccccc3)ccc2F)cc1 (racemic) [Example 76, Trans-2-(2-(2′-fluoro-5′-phenoxy-[1,1′-biphenyl]-4-yl)ethyl) cyclopropanecarboxylic acid]
Second: O=C(O)[C@@H]1C[C@@H]1COc1ccc(-c2cc(Oc3ccccc3)ccc2F)cc1 (single isomer, unassigned) [Example 5]
The EC50 of the first is 4.5-fold lower: 470 nM for the first, 2110 nM for the second.

First: O=C(O)[C@@H]1C[C@H]1COc1ccc(-c2cc(Oc3cccc(F)c3)ccc2F)cc1 (racemic) [Example 42, Trans-2-(((2′-fluoro-5′-(3-fluorophenoxy)-[1,1′-biphenyl]-4-yl)oxy)methyl)cyclopropanecarboxylic acid]
Second: O=C(O)[C@@H]1C[C@H]1COc1ccc(-c2cc(Oc3ccc(F)c(F)c3)ccc2F)cc1 (racemic) [Example 91, Trans-2-(((5′-(3,4-difluorophenoxy)-2′-fluoro-[1,1′-biphenyl]-4-yl)oxy)methyl) cyclopropanecarboxylic acid]
The EC50 of the first is 1.7-fold lower: 180 nM for the first, 310 nM for the second. The first is the more potent here.

First: Cc1ccc(Oc2cc(F)c(F)c(-c3ccc(OCC4CC4C(=O)O)c(F)c3)c2)cc1F (single isomer, unassigned) [Example 109]
Second: O=C(O)C1CC1COc1ccc(-c2cc(Oc3cccc(F)c3)cc(F)c2F)cc1F (racemic) [Example 104, Trans-2-(((2′,3,3′-trifluoro-5′-(3-fluorophenoxy)-[1,1′-biphenyl]-4-yl)oxy)methyl)cyclopropanecarboxylic acid]
The EC50 of the first is 2.9-fold higher: 260 nM for the first, 90 nM for the second.

Compared with `Cc1ccc(Oc2ccc(F)c(-c3ccc(OCC4C[C@H]4C(=O)O)cc3)c2)cn1` (some centres unmarked) [Example 115], `O=C(O)[C@H]1C[C@H]1COc1ccc(-c2cc(Oc3ccccc3)ccc2F)cc1` (single isomer, unassigned) [Example 6] is 2.2-fold higher in EC50: 190 nM for the first, 410 nM for the second.

`COc1ccc(OC(F)(F)F)cc1-c1ccc(CC[C@@H]2C[C@H]2C(=O)O)cc1` (racemic) [Example 79, Trans-2-(2-(2′-methoxy-5′-(trifluoromethoxy)-[1,1′-biphenyl]-4-yl)ethyl)cyclopropanecarboxylic acid] and `COc1ccc(OC(F)(F)F)cc1-c1ccc(OC[C@@H]2C[C@H]2C(=O)O)cc1` (racemic) [Example 71, Trans-2-(((2′-methoxy-5′-(trifluoromethoxy)-[1,1′-biphenyl]-4-yl)oxy)methyl)cyclopropanecarboxylic acid] are within 1.5-fold of each other in EC50: 1440 nM for the first, 1430 nM for the second.

Compared with `CC(C)Oc1ccc(Cl)c(-c2ccc(OC[C@@H]3C[C@H]3C(=O)O)c(F)c2)c1` (racemic) [Example 18, Trans-2-(((2′-chloro-3-fluoro-5′-isopropoxy-[1,1′-biphenyl]-4yl)oxy)methyl) cyclopropanecarboxylic acid], `CC(C)Oc1cc(Cl)cc(-c2ccc(OC[C@@H]3C[C@H]3C(=O)O)c(F)c2)c1` (single isomer, unassigned) [Example 13] is 3-fold higher in EC50: 210 nM for the first, 640 nM for the second.

Going from `CC(C)Oc1ccc(F)c(-c2ccc(OC[C@@H]3C[C@@H]3C(=O)O)cc2)c1` (single isomer, unassigned) [Example 8] to `CC[C@@H](C)Oc1ccc(F)c(-c2ccc(OCC3CC3C(=O)O)cc2)c1` (stereo partly drawn) [Example 93, Trans-2-(((5′-((R)-sec-butoxy)-2′-fluoro-[1,1′-biphenyl]-4-yl)oxy)methyl) cyclopropanecarboxylic acid], the EC50 falls from 2860 nM to 300 nM (9.5-fold).

Going from `O=C(c1ccccc1)c1cccc(-c2ccc(OC[C@@H]3C[C@H]3C(=O)O)cc2)c1` (racemic) [Example 118, Trans-2-(((3′-benzoyl-[1,1′-biphenyl]-4-yl)oxy)methyl) cyclopropanecarboxylic acid] to `O=C(O)[C@@H]1C[C@H]1CCc1ccc(-c2cccc(Oc3ccccc3)c2)cc1` (racemic) [Example 75, Trans-2-(2-(3′-phenoxy-[1,1′-biphenyl]-4-yl)ethyl) cyclopropanecarboxylic acid], the EC50 falls from 460 nM to 180 nM (2.6-fold). The second is the more potent here.

Going from `Cc1ccc(Oc2ccc(F)c(-c3ccc(OCC4CC4C(=O)O)c(F)c3)c2)cc1F` (single isomer, unassigned) [Example 101, Trans-2-(((2′,3-difluoro-5′-(3-fluoro-4-methylphenoxy)-[1,1′-biphenyl]-4-yl)oxy)methyl)cyclopropanecarboxylic acid] to `O=C(O)[C@@H]1CC1COc1ccc(-c2cc(Oc3cccc(F)c3)ccc2F)cc1F` (some centres unmarked) [Example 97], the EC50 falls from 130 nM to 70 nM (1.9-fold).

`CC(C)Oc1ccc(F)c(-c2ccc(CC[C@H]3C[C@@H]3C(=O)O)cc2)c1` (single isomer, unassigned) [Example 32] and `CC(C)Oc1ccc(F)c(-c2ccc(CC[C@H]3C[C@]3(C)C(=O)O)cc2)c1` (racemic) [Example 41, Trans-2-(2-(2′-fluoro-5′-isopropoxy-[1,1′-biphenyl]-4-yl)ethyl)-1-methylcyclopropanecarboxylic acid] are within 1.5-fold of each other in EC50: 990 nM for the first, 860 nM for the second.

Compared with `COc1cc(-c2cc(Oc3cccc(F)c3)ccc2F)ccc1OC[C@@H]1C[C@H]1C(=O)O` (relative stereo) [Example 99, Trans-2-(((2′-fluoro-5′-(3-fluorophenoxy)-3-methoxy-[1,1′-biphenyl]-4-yl)oxy)methyl) cyclopropanecarboxylic acid], `COCCc1cc(-c2cc(OC(C)C)ccc2F)ccc1OC[C@@H]1C[C@H]1C(=O)O` (racemic) [Example 89, Trans-2-(((2′-fluoro-5′-isopropoxy-3-(2-methoxyethyl)-[1,1′-biphenyl]-4-yl)oxy)methyl) cyclopropanecarboxylic acid] is 2.9-fold higher in EC50: 1140 nM for the first, 3250 nM for the second. The first is the more potent here.

Going from `CC(C)Oc1cc(F)c(F)c(-c2ccc(OC[C@@H]3C[C@H]3C(=O)O)cc2F)c1` (racemic) [Example 61, Trans-2-(((2,2′,3′-trifluoro-5′-isopropoxy-[1,1′-biphenyl]-4-yl)oxy)methyl)cyclopropanecarboxylic acid] to `CC(C)Oc1ccc(Cl)c(-c2ccc(OC[C@@H]3C[C@H]3C(=O)O)cc2)c1` (racemic) [Example 119, Trans-2-(((2′-chloro-5′-isopropoxy-[1,1′-biphenyl]-4-yl)oxy)methyl) cyclopropanecarboxylic acid], the EC50 falls from 2780 nM to 510 nM (5.5-fold).

Compared with `O=C(O)[C@@H]1C[C@H]1COc1ccc(-c2cc(OCC3CC3)ccc2F)cc1` (racemic) [Example 95, Trans-2-(((5′-(cyclopropylmethoxy)-2′-fluoro-[1,1′-biphenyl]-4-yl)oxy)methyl)cyclopropanecarboxylic acid], `O=C(O)[C@@H]1C[C@H]1COc1ccc(-c2cc(OC3CCC3)ccc2F)cc1` (racemic) [Example 94, Trans-2-(((5′-cyclobutoxy-2′-fluoro-[1,1′-biphenyl]-4-yl)oxy)methyl) cyclopropanecarboxylic acid] is 2.6-fold lower in EC50: 370 nM for the first, 140 nM for the second.

First: CC(C)COc1cc(F)cc(-c2ccc(OC[C@@H]3C[C@H]3C(=O)O)cc2)c1 (racemic) [Example 72, Trans-2-(((3′-fluoro-5′-isobutoxy-[1,1′-biphenyl]-4-yl)oxy)methyl) cyclopropanecarboxylic acid]
Second: CC(C)Sc1ncc(C(F)(F)F)cc1-c1ccc(OC[C@@H]2C[C@H]2C(=O)O)cc1 (racemic) [Example 69, Trans-2-((4-(2-(isopropylthio)-5-(trifluoromethyl)pyridin-3-yl)phenoxy)methyl)cyclopropanecarboxylic acid]
The EC50 of the first is 7-fold lower: 1550 nM for the first, 10800 nM for the second. The first is the more potent here.

`Cc1nc(-c2ccccc2)c(-c2ccc(CC[C@@H]3C[C@H]3C(=O)O)cc2)s1` (single isomer, unassigned) [Example 27, Trans-2-(4-(2-methyl-4-phenylthiazol-5-yl)phenethyl)cyclopropanecarboxylic acid] gave an EC50 of 1230 nM.
